Values of other authors in paper PMC3693451 (Bioorganic & medicinal chemistry letters, 2011).

Key:
CB receptors [1] = settings: read-out: Ki at both CB receptors
CB receptors [2] = system: CB receptors
[3] = 214 targets
[4] = system: rat CB1, human CB1 and human CB2 receptors
human CB1 = settings: read-out: human CB1 Ki
[5] = system: chronic neuropathic and inflammatory pain; settings: rat

SMILES | neuroprotective properties | Ki (CB receptors [1]) [µM] | agonist type at both CB receptors (CB receptors [2]) | selectivity for CB receptors in target screen [3] | agonist properties in [35S]GTPγS binding assays [4] | Ki (human CB1) [µM] | effect in chronic neuropathic and inflammatory pain models [5]
O=S(=O)(CCCC(F)(F)F)Oc1cccc(Oc2cccc3c2C[C@H](CO)C3)c1 [BAY 38–7271, (−)-(R)-3-(2-hydroxymethylindanyl-4-oxy)phenyl-4,4,4-trifluoro-1-sulfonate] | pronounced neuroprotective properties | 0.00046 to 0.00185 | full agonist |  |  |  | 
N#Cc1c(Oc2cccc(OS(=O)(=O)CCCC(F)(F)F)c2)cccc1C(F)(F)F [BAY 59–3074] |  |  |  | no significant interactions with other targets | partial agonist | 0.0483 | pronounced antihyperalgesic and antiallodynic properties
